Data taken from patent US20230243815A1, “AN APPARATUS COMPRISING MICROFLUIDIC PROTEIN-BASED SENSORS AND METHODS OF USING SAME” (UNIVERSITY OF MARYLAND, BALTIMORE COUNTY, priority 2020, published 2023).

Molecular target: branched-chain amino acid binding protein (Escherichia coli, UniProt P0AD96)
Test: Binding of amino acids to branched-chain amino acid binding protein biosensor (microfluidic column sensor)
Conditions: binding affinity of the analyte to the branched-chain amino acid binding protein biosensor; FIG. 9
Source text: FIG. 9(A) illustrates amino acids that bind at varying affinities to a microfluidic column biosensor, where F/F0 is the fluorescence intensity ratio.
Microfluidic column sensors are also useful when the biosensor detects more than one analyte but with different binding affinities. […] This is shown in FIG. 9, where a mixture of these amino acids can be separately detected over the length of the microfluidic column.

branched-chain amino acid binding protein, sequence (P0AD96 24-367): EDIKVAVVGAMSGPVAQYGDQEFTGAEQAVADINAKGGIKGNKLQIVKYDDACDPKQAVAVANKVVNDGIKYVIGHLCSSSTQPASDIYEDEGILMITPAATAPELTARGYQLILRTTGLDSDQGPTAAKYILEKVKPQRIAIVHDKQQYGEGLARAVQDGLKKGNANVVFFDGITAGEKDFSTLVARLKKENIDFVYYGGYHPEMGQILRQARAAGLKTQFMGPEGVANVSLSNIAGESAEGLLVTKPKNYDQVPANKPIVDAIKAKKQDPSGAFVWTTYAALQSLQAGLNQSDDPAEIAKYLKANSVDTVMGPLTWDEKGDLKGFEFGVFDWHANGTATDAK

| SMILES | Kd [µM] |
| --- | --- |
| CC[C@H](C)[C@H](N)C(=O)O [isoleucine] | 68 |
| CC(C)C[C@H](N)C(=O)O [leucine] | 58 |
| CC(C)[C@H](N)C(=O)O [valine] | 135 |
